Our source for the viability values is the supplement of paper PMC6723410.

For the first assay, the system named is GUMC-403. Description: viability at highest tested concentration (max response) relative to DMSO (% of DMSO control); higher = less cytotoxic. The conditions noted are these: library / dose series: MIPE library, 11-point 1:3 dilution; top concentration 13.4 µM; 48 h. The gist of the method: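 This value is viability at the highest tested concentration relative to vehicle control. GUMC-403 papilloma cells from a patient, grown by conditional reprogramming, were plated at 700/well in 1536-well plates and given 23 nL of compound by pin tool for 48 h. CellTiter-Glo luminescence on a ViewLux was normalised with vehicle wells at 100% and empty wells at 0%.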
For `CN[C@H]1[C@H](O[C@@H]2[C@H](O[C@@H]3[C@@H](O)[C@@H](O)[C@@H](NC(=N)N)[C@@H](O)[C@H]3NC(=N)N)O[C@H](C)[C@@]2(O)C=O)O[C@@H](CO)[C@@H](O)[C@H]1O`, the viability is 114.

The assay is the same for the next values; noted with them: library / dose series: MIPE library, 11-point 1:3 dilution; top concentration 23 µM; 48 h.
As to `[O-]C(=O)C/1=N/C(=O)NC(=O)N1`, the viability was 90.2.

Compound `CC(C)Cc1ccc(C(C)C(=O)O)cc1` (stereo unspecified) yielded a viability of 103.

The assay is the same for the next values; noted with them: library / dose series: MIPE library, 11-point 1:3 dilution; top concentration 46.1 µM; 48 h.
The compound `CC(C)(O)/C=C\C(=O)[C@](C)(O)[C@H]1[C@H](O)C[C@]2(C)[C@@H]3CC=C4[C@@H](C=C(O)C(=O)C4(C)C)[C@]3(C)C(=O)C[C@@]12C` came in with a viability of 83.7.

Compound `COc1ccccc1OCC(O)CN1CCN(CC(=O)Nc2c(C)cccc2C)CC1` (stereo unspecified) came in with a viability of 130.

For `COc1cnc(N[S+](=O)([O-])c2ccc(N)cc2)nc1`, the viability was 115.

Turning to `OC1=CC=C(C=C1)\C2=C\C(=O)C3=C(O2)C=C(O)C=C3O`, the viability amounted to 138.

The compound `CN1[C@@H]2CC[C@H]1CC(OC(=O)c1c[nH]c3ccccc13)C2` (stereo partly specified) gave a viability of 134.

Regarding `O=[S+]([O-])(CCSSCC[S+](=O)([O-])[O][Na])[O][Na]`, the viability came to 119.

The compound `NC\1=N\C(=O)N(\C=N1)[C@H]2C[C@H](O)[C@@H](CO)O2` showed a viability of 105.

With `COc1nc(-c2ccc3c(c2)OCO3)n(-c2ccc(NC(=O)CSc3ccccc3)cc2)n1`, the viability was 101.

Regarding `O=C(NCC1CN(c2ccc(N3CCOCC3=O)cc2)C(=O)O1)c1ccc(Cl)s1` (stereo unspecified), the viability was 127.

Compound `Cc1cc(Nc2nc(N[C@@H](C)c3ccc(F)cc3)c(C#N)cc2F)n[nH]1` gave a viability of 65.1.

As to `CC/1=C/N([C@@H]2C[C@@H](O)[C@H](CO)O2)C(=O)NC1=O`, the viability came to 117.

Regarding `Cc1noc(-c2ccc(CSCCC(=O)O)cc2)c1NC(=O)OC(C)c1ccccc1Cl` (stereo unspecified), the viability was 106.

As for `COc1cc(CCc2cc(NC(=O)c3ccc(N4C[C@@H](C)N[C@@H](C)C4)cc3)n[nH]2)cc(OC)c1`, the viability stood at 81.8.

Compound `C[S+](=O)([O-])c1cc(F)cc2c3c(n(Cc4ccc(Cl)cc4)c12)[C@@H](CC(=O)O)CC3` returned a viability of 128.

Consider `CC(O)(C#Cc1ccc2c(c1)N(c1nc(N)ncc1Cl)CC2)c1nccs1` (stereo unspecified), for which the viability was determined as 86.5.

On to `C[S+](=O)([O-])N(Cc1ccco1)CC(O)Cn1c2ccccc2c2ccccc21` (stereo unspecified), for which the viability is 90.4.

On to `COc1cc2c(cc1-c1c(C)noc1C)ncc1[nH]c(=O)n([C@H](C)c3ccccn3)c12`, for which the viability turned out to be 69.1.

Turning to `CO[C@@]12[C@H](COC(N)=O)C/3=C(N1C[C@@H]4N[C@H]24)/C(=O)/C(=C(N)\C3=O)C`, the viability is 77.

Take `CCCc1cc(C(N)=S)ccn1`: the viability worked out at 112.

With `CO[C@H]1O[C@@H]2O[C@@]3(C)CC[C@H]4[C@H](C)CC[C@@H]([C@H]1C)[C@@]24OO3`, the viability was 116.

Compound `OC[C@H]1O[C@@H](Oc2cc(O)cc(/C=C/c3ccc(O)cc3)c2)[C@H](O)[C@@H](O)[C@@H]1O` showed a viability of 128.

In the case of `N[C@H]2CN(CC12CC1)c3c(F)cc4c(c3Cl)[N@@](C=C(C4=O)C(=O)O)C5C[C@H]5F` (stereo partly specified), the viability was determined as 103.

Take `CN[C@@H](C)[C@H]1[C@H](O)C[C@@]2(C)[C@@H]3CC[C@H]4C(C)(C)[C@@H](NC)CC[C@@]45C[C@@]35CC[C@]12C`: the viability is 96.

As for `Cc1ccc([C@@H]2O[C@H](CO)[C@@H](O)[C@H](O)[C@H]2O)cc1Cc1ccc(-c2ccc(F)cc2)s1`, the viability worked out at 108.

`Nc1nc(N)c2nc(CNc3ccc(C(=O)NC(CCC(=O)O)C(=O)O)cc3)cnc2n1` (stereo unspecified) registered a viability of 76.6.

With `O=C1\C=C/C=C2/[C@H]3CNC[C@H](C3)CN12`, the viability came to 136.

As for `C=C1C(=O)OC2/C=C(/C)CC/C=C(/C)CCC12` (stereo unspecified), the viability came out at 113.

On to `CC(C)C1NC(=O)C(NC(=O)C2=C3\N=C\4/C(=C(C)\C(=O)\C(=C4C(=O)NC5C(C)OC(=O)C(C(C)C)N(C)C(=O)CN(C)C(=O)C6CCCN6C(=O)C(NC5=O)C(C)C)N)OC3=C(C)C=C2)C(C)OC(=O)C(C(C)C)N(C)C(=O)CN(C)C(=O)C7CCCN7C1=O` (stereo unspecified), for which the viability was 12.2.

Take `C=C1/C(=C/C=C2\CCCC3(C)[C@@H]([C@H](C)/C=C/C=C/C(O)(CC)CC)CC[C@@H]23)C[C@@H](O)C[C@@H]1O` (stereo partly specified): the viability was found to be 148.

In the case of `CC1(C)CC(=O)c2c(C(F)(F)F)nn(-c3ccc(C(N)=O)c(NC4CCC(OC(=O)CN)CC4)c3)c2C1` (stereo unspecified), the viability was determined as 84.3.

As to `COc1cc2ncn(-c3cc(OCc4ccccc4[S+](C)(=O)[O-])c(C#N)s3)c2cc1OC`, the viability was found to be 81.5.

In turn, `CC(C)NCC(O)COc1ccc(COCCOC(C)C)cc1` (stereo unspecified) gave a viability of 117.

`COc1ccnc(C[S+]([O-])c2nc3cc(OC(F)F)ccc3[nH]2)c1OC` (stereo unspecified) returned a viability of 98.7.

`NC\1=N\C(=O)N(\C=C1F)[C@H]2C[C@H](O)[C@@H](CO)O2`: the viability is 108.

Regarding `CC(C)OC(=O)CCC/C=C\C[C@@H]1[C@@H](/C=C/[C@@H](O)COc2cccc(C(F)(F)F)c2)[C@H](O)C[C@@H]1O`, the viability is 118.

Regarding `COc1ccc(C(=O)CC(=O)c2ccc(C(C)(C)C)cc2)cc1`, the viability came to 126.

Consider `O=C(CCCN1CCC(O)(c2ccc(Cl)cc2)CC1)c1ccc(F)cc1`, for which the viability worked out at 105.

`N[S+](=O)([O-])c1cc2c(cc1Cl)NC(C(Cl)Cl)N[S+]2(=O)[O-]` (stereo unspecified) came in with a viability of 98.6.

For the compound `COC1=CC=C2C(=CC=NC2=C1)OC3=CC=C(NC(=O)\C4=C(C)\N(CC(C)(C)O)N(C4=O)C5=CC=CC=C5)C=C3F`, the viability stood at 80.3.

`COc1ccc(-c2ccc3cc(C(=O)O)ccc3c2)cc1C12CC3CC(CC(C3)C1)C2` came in with a viability of 112.

Turning to `CCCOc1ccc2[nH]c(NC(=O)OC)nc2c1`, the viability stood at 108.

For the compound `CCO[C@@H]1OC(=O)C[C@@H]1NC(=O)[C@@H]1CCCN1C(=O)[C@@H](NC(=O)c1ccc(N)c(Cl)c1)C(C)(C)C`, the viability was 138.

`NC[C@@H]1O[C@H](O[C@H]2[C@@H](O)[C@H](O[C@@H]3[C@@H](O)[C@H](N)C[C@H](N)[C@H]3O[C@H]3O[C@H](CN)[C@@H](O)[C@H](O)[C@H]3N)O[C@@H]2CO)[C@H](N)[C@@H](O)[C@@H]1O.O=S(=O)(O)O.O=S(=O)(O)O.O=S(=O)(O)O` returned a viability of 119.

Compound `C#Cc1cccc(Nc2ncnc3cc(OCCOC)c(OCCOC)cc23)c1` displayed a viability of 47.6.

The compound `C\C1=N\N(C(=O)C1)C2=CC=CC=C2` yielded a viability of 97.2.

In turn, `Cc1c(NC(=O)OC[C@@H]2COCCN2)cn2ncnc(Nc3ccc4c(cnn4Cc4cccc(F)c4)c3)c12` showed a viability of 75.8.

The compound `C[N]1C=C(C=N1)C2=CC=C3N=CC\4=C(N(C(=O)\C=C4)C5=CC6=C(CCN6C(=O)C=C)C=C5)C3=C2` had a viability of 104.

`C[C@H]1[C@@H](C(=O)C[C@H]2O[C@@H]3O[C@]4(C)CC[C@H]5[C@H](C)CC[C@@H]([C@H]2C)[C@@]35OO4)O[C@@H]2O[C@]3(C)CC[C@H]4[C@H](C)CC[C@@H]1[C@@]24OO3` gave a viability of 121.
